Laboratory results published in US20240293558A1, “KRAS INHIBITOR CONJUGATES” (Erasca, Inc., priority 2021, published 2024).
Like-named read-outs stand apart in the source and are kept apart here.

Assays:
KRAS (WT) = target: T1, KRAS (WT) (Homo sapiens, UniProt P01116); test: In-vitro RAS-RAF binding assay (RRB), HTRF/FRET; format: biochemical; details: read-out: Inhibition of RAS-RAF Binding (in-vitro) KRAS (WT) IC50
T1 construct: Biotinylated KRAS protein amino acids 1-169 (produced at Erasca); made in house
In short: (§1)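 Biotinylated KRAS 1-169 (streptavidin-terbium donor, 30 nM) and GST-cRAF RBD (anti-GST d2 acceptor, 30 nM) in HEPES pH 7.5, NaCl, MgCl2, DTT buffer. After compound incubation, SOS1 catalytic domain plus GTPgS drive 60 min nucleotide exchange. HTRF FRET read at equilibrium, in duplicate.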

KRAS G12D [1] = target: T2, KRAS G12D (Homo sapiens, UniProt P01116, G12D); test: Degradation of KRas G12D in AsPC-1 cells, Western blot; format: cell-based; parameters: endogenous in cells; host or cells: AsPC-1 (ATCC CRL-1682); details: for KRAS G12D degradation (Western blot), result in words: AsPC-1 cells, FIGS. 1-5; for Dmax: ASPC1; for Dmax / DC50: AsPc-1 cell line after 24 h treatment
Description: This Example illustrates that the compounds presented herein degrade KRAS G12D.
AsPC-1 cells (ATCC CRL-1682) expressing G12D were grown in RPMI-1640 medium supplemented with 10% fetal bovine serum, and Penicillin/Streptomycin. Cell were plated in 6-well tissue culture plates at a density of 1 million cells/well and allowed to attach for overnight. Diluted compounds were then added in a final concentration of 0.2% DMSO. After 24 hour treatment, the medium was removed, and the plate was washed three times with ice-cold PBS. 50ul of the RIPA cell lysis buffer (ThermoFisher 89901) supplemented with protease inhibitor (Roche 4693116001) and Phosphatase Cocktail A and B inhibitor (Bimake B15002; Bimake Houston TX) was added to each well, the adherent cells were scratched off, and transferred into pre-cold centrifuge tubes. After vigorous vortex, the tubes were incubated on ice for 30 minutes, centrifuged 14,000 rpm for 10 min at 4° C., and the supernatant were transferred into fresh tubes kept on ice. The protein concentration of the supernatant was determined with bicinchoninic acid method (BCA) (ThermoFisher 23227). Samples were prepared to the final concentration of 30ug in 20ul using NuPAGE LDS Sample Buffer (Invitrogen NP0007), NuPAGE Sample Reducing Agent (Invitrogen NP0009), and RIPA cell lysis buffer, and boiled at 95° C. for 15 minutes in water bath.
The levels of KRAS protein and phosphorylated ERK1/2 were determined by Western blotting. 20 μL of protein sample mixture was loaded into each well of 1.5 mm 4-12% Bis-Tris gel (Invitrogen NP0335), and run at 80V in stacking gel and 120 V in separating gel for about 2 h in MOPS running buffer (Invitrogen NP0001). The gel was transferred to the membrane (20V, 7 min) with Invitrogen iBlot2, and blocked with Li-Cor blocking buffer (LI-COR 927-60001; Li-Cor Biotechnology, Lincoln NE) for at least 1 h at room temperature. Primary antibodies diluted in the blocking buffer were added and incubated at 4° C. overnight. As the primary antibodies, KRAS (Proteintech 12063-1-AP), G12D Mutant Specific KRAS (Cell Signaling Technology 14429S), ERKI1/2 (Cell Signaling Technology 4695S), Phospho-ERKI1/2 (Cell Signaling Technology 4370S), and GAPDH (Millipore MAB374) were used. The membrane was washed 4 times with TBST (0.10% Tween20®; ThermoFisher 28360) for 5 minutes at room temperature, then incubated with Li-Cor anti-rabbit-800 (LI-COR 926-68070) and anti-mouse-680 (LI-COR-926-32211) diluted in Li-Cor blocking buffer with the ratio of 1:15,000 to visualize the primary antibodies for 1 hour at room temperature. Then membrane was washed 4 times with TBST (0.1% Tween20) 5 minutes. The signal intensities of bands were quantified by Li-Cor Odyssey CLX.
The KRas and phosphor-ERK1/2 signals were normalized to the GAPDH signal for each lane and percent of DMSO values were calculated to determine the degradation of KRas and the inhibition of ERK1/2 phosphorylation upon the compound treatment.

KRAS G12D [2] = target: T2, KRAS G12D; test: In-vitro RAS-RAF binding assay (RRB), HTRF/FRET; format: biochemical; parameters: Biotinylated KRAS protein amino acids 1-169 (produced at Erasca); made in house; details: read-out: Inhibition of RAS-RAF Binding (in-vitro) KRAS (G12D) IC50
In short: as §1

KRAS 4B G12C protein = target: T3, KRAS 4B G12C protein (Homo sapiens, UniProt P01116, G12C); test: In vitro covalent adduct formation (CAF) assay, LC-MS; format: binding; details: 5 μM KRAS 4B G12C, 10 μM compound, 22° C.
T3 construct: made in house; host or cells: E. coli BL21
Description: This Example provides a protocol for assessing covalent adduct formation (CAF) between the compounds provided herein and KRAS.
In vitro covalent adduct formation assay: Covalent adduct formation (CAF) reactions between Cys12 of the KRAS 4B G12C protein and embodiments of the application were measured in vitro using liquid chromatography-mass spectrometry (LC-MS).
Recombinant Human KRAS 4B protein containing the G12C mutation was used in compound screening experiments. This protein contained 188 amino acids in total, including an N-terminal 6-Histidine tag, followed by a Tobacco Etch Virus (TEV) tag, followed by residues 1-169 of the native KRAS 4B sequence. The exact mass of the protein was 21,310 Da as determined by mass spectrometry. […]
The recombinant protein was expressed in E. coli BL21 cells and purified using affinity chromatography via a Ni-NTA column. […] The intact mass of the protein samples was measured by LC-MS using a QExactive+mass spectrometer (Thermo Scientific). An amount of 500 ng total protein was injected onto a C8 reverse phase column, eluted with a seven-minute gradient of 30%-90% acetonitrile/0.10% formic acid, and analyzed for intact mass by the mass spectrometer. Adducts identified were confirmed to be within 1 Dalton of the expected mass, and the relative ratios of free:adduct protein were used to quantify the percentage of protein bound by the compound. […]

[3] = Table 2, average of multiple runs of each compound

Structure (SMILES)	IC50 (KRAS (WT); Table 1)	IC50 (KRAS (WT); [3])	KRAS G12D degradation (Western blot), result in words (KRAS G12D [1])	IC50 (KRAS G12D [2]; Table 1)	IC50 (KRAS G12D [2]; [3])	Dmax (KRAS G12D [1])	DC50 (KRAS G12D [1])	% CAF at 5 min (KRAS 4B G12C protein)
Cc1ncsc1-c1ccc([C@H](C)NC(=O)[C@@H]2C[C@@H](O)CN2C(=O)[C@@H](NC(=O)CCCCN2CCC[C@H]2COc2nc(N3CC4CCC(C3)N4)c3cc(Cl)c(-c4ccc(F)c5sc(N)nc45)c(F)c3n2)C(C)(C)C)cc1 [Example 7, (2S,4R)-1-[(2S)-2-[5-[(2S)-2-[[7-(2-amino-7-fluoro-1,3-benzothiazol-4-yl)-6-chloro-4-(3,8-diazabicyclo[3.2.1]octan-3-yl)-8-fluoro-quinazolin-2-yl]oxymethyl]pyrrolidin-1-yl]pentanoylamino]-3,3-dimethyl-butanoyl]-4-hydroxy-N-[(1S)-1-[4-(4-methylthiazol-5-yl)phenyl]ethyl]pyrrolidine-2-carboxamide]	448 nM	448 nM	Favorable results	12 nM	12.4 nM	–	–	–
Cc1ncsc1-c1ccc([C@H](C)NC(=O)[C@@H]2C[C@@H](O)CN2C(=O)[C@@H](NC(=O)CCOCCCN2CCC[C@H]2COc2nc(N3CC4CCC(C3)N4)c3cnc(-c4cc(O)cc5cccc(F)c45)c(F)c3n2)C(C)(C)C)cc1 [Example 6, (2S,4R)-1-[(2S)-2-[3-[3-[(2S)-2-[[4-(3,8-diazabicyclo[3.2.1]octan-3-yl)-8-fluoro-7-(8-fluoro-3-hydroxy-1-naphthyl)pyrido[4,3-d]pyrimidin-2-yl]oxymethyl]pyrrolidin-1-yl]propoxy]propanoylamino]-3,3-dimethyl-butanoyl]-4-hydroxy-N-[(1S)-1-[4-(4-methylthiazol-5-yl)phenyl]ethyl]pyrrolidine-2-carboxamide]	126 nM	158 nM	Favorable results	9.5 nM	8.21 nM	95%	255 nM	–
C=CC(=O)N1CCN(c2nc(OCCN3CCC(COc4cc([C@H](C(=O)N5C[C@H](O)C[C@H]5C(=O)N[C@@H](C)c5ccc(-c6c(F)cccc6F)cc5)C(C)C)on4)CC3)nc3c(F)c(-c4nc(N)cc(C)c4C(F)(F)F)c(Cl)cc23)[C@@H](C)C1 (atropisomer, axis not shown) [Example 200, (2S,4R)-1-((R)-2-(3-((1-(2-((4-((S)-4-acryloyl-2-methylpiperazin-1-yl)-7-((R)-6-amino-4-methyl-3-(trifluoromethyl)pyridin-2-yl)-6-chloro-8-fluoroquinazolin-2-yl)oxy)ethyl)piperidin-4-yl)methoxy)isoxazol-5-yl)-3-methylbutanoyl)-N—((S)-1-(2′,6′-difluoro-[1,1′-biphenyl]-4-yl)ethyl)-4-hydroxypyrrolidine-2-carboxamide]	–	–	–	–	–	–	–	97%
Cc1ncsc1-c1ccc([C@H](CO)NC(=O)[C@@H]2C[C@@H](O)CN2C(=O)[C@@H](NC(=O)CCOCCCN2CCC[C@H]2COc2nc(N3CC4CCC(C3)N4)c3cc(Cl)c(-c4ccc(F)c5sc(N)c(C#N)c45)c(F)c3n2)C(C)(C)C)cc1 [Example 9, (2S,4R)-1-[(2S)-2-[3-[3-[(2S)-2-[[7-(2-amino-3-cyano-7-fluoro-benzothiophen-4-yl)-6-chloro-4-(3,8-diazabicyclo[3.2.1]octan-3-yl)-8-fluoro-quinazolin-2-yl]oxymethyl]pyrrolidin-1-yl]propoxy]propanoylamino]-3,3-dimethyl-butanoyl]-4-hydroxy-N-[(1R)-2-hydroxy-1-[4-(4-methylthiazol-5-yl)phenyl]ethyl]pyrrolidine-2-carboxamide]	49.5 nM	49.5 nM	Favorable results	13.8 nM	13.8 nM	95%	183 nM	–
Cc1ncsc1-c1ccc([C@H](C)NC(=O)[C@@H]2C[C@@H](O)CN2C(=O)[C@@H](NC(=O)CCOCCCN2CCC[C@H]2COc2nc(N3CC4CCC(C3)N4)c3cc(Cl)c(-c4ccc(F)c5sc(N)nc45)c(F)c3n2)C(C)(C)C)cc1 [Example 4, (2S,4R)-1-[(2S)-2-[3-[3-[(2S)-2-[[7-(2-amino-7-fluoro-1,3-benzothiazol-4-yl)-6-chloro-4-(3,8-diazabicyclo[3.2.1]octan-3-yl)-8-fluoro-quinazolin-2-yl]oxymethyl]pyrrolidin-1-yl]propoxy]propanoylamino]-3,3-dimethylbutanoyl]-4-hydroxy-N-[(1S)-1-[4-(4-methylthiazol-5-yl)phenyl]ethyl]pyrrolidine-2-carboxamide]	134 nM	216 nM	successful degradation	13 nM	15.1 nM	–	–	–
